IC50 data for 32 compounds are collected here from PubChem BioAssay AID602211 (Sanford-Burnham Center for Chemical Genomics, 2012).

The source made the active and inactive calls.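 How the source made its calls: active means mean IC50 at or below 10 µM; inactive means the rest.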

The assay concerns H9c2 cardiomyocytes, H2O2 protection, ATPLite viability, 2 h. The assay can be described thus: H2O2-induced H9c2 cell death suppression – ATPLite luminescence, set 2, dose response (AID 602211).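 Further: potency is for protection so actives keep ATP signal up against peroxide killing.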
For the compound `COc1ccc(-c2cnc3c(NC=O)cc(-c4cccc(NS(C)(=O)=O)c4)cn23)cc1OC`, the IC50 was 5.59 µM.
The value for `NC(=O)c1nsc(C(=O)N(CCc2ccccc2)C(C(=O)NC2CCCC2)c2ccco2)c1N` (configuration not stated) was 11.3 µM (inactive); that for `O=C(/C=C\c1cn(-c2ccccc2)nc1-c1ccc2c(c1)OCCO2)N1CCOCC1` was 7.49 µM.
The value for `CC(C)OCCCNC(=O)CCC(=O)NNc1nc2ccccc2c2nc(-c3ccccc3)nn12` was 19.8 µM (inactive); that for `N#C/C(=C\c1ccc(-c2cccc([N+](=O)[O-])c2)o1)C(=O)NCCN1CCOCC1` was > 79 µM (inactive); that for `CCN(CC)S(=O)(=O)c1ccc(N2CCOCC2)c(NC(=O)c2cc(-c3ccccn3)nc3ccccc23)c1` was 1.34 µM.
The value for `COc1cc(OC)cc(-c2cc3nc(C)c(CCC(=O)Nc4nc(C)cs4)c(C)n3n2)c1` was 4.8 µM; that for `CC(C)c1cc(N2CCN(C(=O)c3ccco3)CC2)n2c(nc3ccccc32)c1C#N` was 44.8 µM (inactive); that for `O=C(Nc1ccc(C(=O)N2CCOCC2)cc1)c1cnn2c(C(F)F)cc(-c3ccccc3)nc12` was 2.8 µM.
Regarding `COc1ccc(NC(=O)c2cc3c(=O)n(C)c4ccccc4c3n2C)cc1OC`, the IC50 is 3.23 µM.
For the compound `Cc1ccc(-c2csc(N3CCC[C@@H]3C(=O)NCCn3c(-c4ccncc4)nc4ccccc43)n2)cc1`, the IC50 was 2.83 µM.
The value for `CC(OC(=O)c1cc(-c2cccnc2)nc2ccccc12)C(=O)Nc1ccc2ccccc2c1` (configuration not stated) was 5.97 µM.
With `O=C(CSc1nnc(Cc2cccs2)n1CCc1ccccc1)N1CCCc2ccccc21`, the IC50 was > 79 µM (inactive).
The result for `Cc1ccc2nc(-c3ccccc3)cc(C(=O)NNC(=O)c3csc(N4CCOCC4)n3)c2c1` reads 15 µM (inactive); that for `COc1cc(-c2cc3nc(NCCc4ccc(S(N)(=O)=O)cc4)ccn3n2)cc(OC)c1OC`, 12.1 µM (inactive); that for `Clc1ccccc1-c1nc(N/N=C/c2cccnc2)c2ccccc2n1`, 7.3 µM.
Turning to `COc1cccc(/C=N/NC(=O)c2oc3nc(-c4ccccc4)cc(-c4ccco4)c3c2N)c1`, the concentration for half-maximal inhibition (IC50) is 5.87 µM.
The result for `O=c1c2ccccc2nc(CSc2ncnc3nc[nH]c23)n1-c1ccc(Cl)c(Cl)c1` reads 4.13 µM; that for `Cc1cccc(NC(=O)c2oc3ccc(S(=O)(=O)N4CCOCC4)cc3c2C)c1C`, 3.23 µM; that for `Cc1ncc(CO)c2cc(C(=O)Nc3ccccc3Cl)c(=Nc3cccc(C(N)=O)c3)oc12`, 0.51 µM.
Consider `COc1cc2nc(C3CCC3)nc(N3CCN(c4ccccn4)CC3)c2cc1OC`, for which the IC50 was > 79 µM (inactive).
The value for `CCN(CC)C(=O)c1ccc2c3c(cccc13)C(=O)N(CCc1ccc(OC)c(OC)c1)C2=O` was > 79 µM (inactive); that for `CC1Nc2ncnc(N3CCN(c4ccccc4)CC3)c2N(Cc2ccc(Br)cc2)C1=O` (configuration not stated) was 6.65 µM.
The value for `COc1ccc(Nc2nc(C(=O)N3CCc4cc(OC)c(OC)cc4C3)cs2)cc1` was 4.29 µM.
The result for `Cc1ccc(S(=O)(=O)N2CCN(C(=O)c3cc(=O)[nH]c4ccccc34)CC2)c(C)c1` reads 2.24 µM; that for `COc1ccccc1NC(=O)CSc1ccc2nnc(-c3ccc(C)cc3)n2n1`, 3.16 µM.
For `COCCCNC(=O)/C(C#N)=C1\N=C(NC(=O)c2cccs2)c2ccccc21`, the IC50 is > 79 µM (inactive).
With `C=C1C(C)C2C(Cc3ccccc3)NC(=O)C23OC(=O)/C=C/C(O)CCCC(C)C/C=C/C3C1O` (configuration not stated), the IC50 was 0.611 µM.
The value for `COc1ccc(C(=O)COC(=O)Cn2[nH]c(=O)c3ccccc3c2=O)c(OC)c1` was 27.2 µM (inactive); that for `CC(=O)c1cccc(-c2cnc3c(NC=O)cc(-c4cccc(C(=O)N(C)C)c4)cn23)c1` was 14.9 µM (inactive); that for `Cc1ccc(NC(=O)c2nc[nH]c2C(=O)NCCCCCCNC(=O)c2[nH]cnc2C(=O)Nc2ccc(C)cc2)cc1` was 3.93 µM.
The result for `CC(C)(C)OC(=O)NCC12C=CC(O1)C1C(=O)N(Cc3ccccc3)C(=O)C12` (configuration not stated) reads 2.91 µM.
